In the supplement of paper PMC10307832:

Tests used:
Assay in all cases: relative viability (nuclei count vs DMSO), 5 days (fraction); higher = more cells survive
Kobe2602 + Linsitinib = compound: C1=CC(=CC=C1NC(=S)NNC2=C(C=C(C=C2[N+](=O)[O-])C(F)(F)F)[N+](=O)[O-])F [Kobe2602] + C[C@]1(O)C[C@@H](c2nc(-c3ccc4ccc(-c5ccccc5)nc4c3)c3c(N)nccn32)C1 [Linsitinib] (partner 1 µM)
Method in brief: (§1)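 Relative viability equals treated-well nuclei counts divided by vehicle-well nuclei counts. Counts came from 4× images of lung cancer cell lines grown in 1536-well plates for 5 days after pin-tool dosing on the day after seeding. Dosing used one drug alone or a fixed anchor-drug dose plus five library-drug doses (not always all listed) in √10 steps, and values are medians of duplicate plates.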

Kobe2602 + Foretinib = compound: C1=CC(=CC=C1NC(=S)NNC2=C(C=C(C=C2[N+](=O)[O-])C(F)(F)F)[N+](=O)[O-])F [Kobe2602] + COc1cc2c(Oc3ccc(NC(=O)C4(C(=O)Nc5ccc(F)cc5)CC4)cc3F)ccnc2cc1OCCCN1CCOCC1 [Foretinib] (partner 0.25 µM)
Method in brief: as §1

[1] = compound: COc1cc2nccc(Oc3ccc(NC(=O)C4(C(=O)Nc5ccc(F)cc5)CC4)cc3)c2cc1OC [Cabozantinib] + O=C(CCCCCCC(=O)Nc1ccccc1)NO [Vorinostat] (partner 1 µM)
Method in brief: as §1

Kobe2602 + Alpelisib = compound: C1=CC(=CC=C1NC(=S)NNC2=C(C=C(C=C2[N+](=O)[O-])C(F)(F)F)[N+](=O)[O-])F [Kobe2602] + Cc1nc(NC(=O)N2CCC[C@H]2C(N)=O)sc1-c1ccnc(C(C)(C)C(F)(F)F)c1 [Alpelisib] (partner 2 µM)
Method in brief: as §1

UMC-11
relative viability (Kobe2602 + Linsitinib; first compound 0.2 µM): 1
relative viability (Kobe2602 + Linsitinib; first compound 0.6325 µM): 1.06
relative viability (Kobe2602 + Linsitinib; first compound 2 µM): 0.997
relative viability (Kobe2602 + Linsitinib; first compound 6.325 µM): 0.996
relative viability (Kobe2602 + Linsitinib; first compound 20 µM): 0.947
relative viability (Kobe2602 + Foretinib; first compound 0.2 µM): 1.03
relative viability (Kobe2602 + Foretinib; first compound 0.6325 µM): 0.957
relative viability (Kobe2602 + Foretinib; first compound 2 µM): 0.96
relative viability (Kobe2602 + Foretinib; first compound 6.325 µM): 0.953
relative viability (Kobe2602 + Foretinib; first compound 20 µM): 1.08
relative viability ([1]; first compound 0.02 µM): 0.302
relative viability ([1]; first compound 0.06325 µM): 0.336
relative viability ([1]; first compound 0.2 µM): 0.37
relative viability ([1]; first compound 0.6325 µM): 0.323
relative viability ([1]; first compound 2 µM): 0.332
relative viability (Kobe2602 + Alpelisib; first compound 0.2 µM): 1
relative viability (Kobe2602 + Alpelisib; first compound 0.6325 µM): 1.03
relative viability (Kobe2602 + Alpelisib; first compound 2 µM): 0.954
relative viability (Kobe2602 + Alpelisib; first compound 6.325 µM): 0.94
relative viability (Kobe2602 + Alpelisib; first compound 20 µM): 0.976
